Test results: patent publication EP3074389B1, “QUINOLINE DERIVATIVES AS BROMODOMAIN INHIBITORS” (Gilead Sciences, Inc., priority 2013, dated 2015)

Tests used:
[1] = target: BRD4 domain 1 (Homo sapiens, UniProt O60885); experiment: Kd determination of inhibitors binding to BRD4 domain 1 (Epic label-free platform); settings: direct binding to immobilized BRD4 domain 1; tripling dilution series from 20µM; about 1hr equilibrium; rounded to whole number; read-out: Epic Kd BRD41
Protocol: (§1) Kd Determination of Inhibitors Binding to BRD4 Domain 1 and Domain 2
(§2) The binding of small molecule inhibitors to either BRD4 domain 1 or domain 2 were determined using the Epic, high-throughput, label-free platform (Corning, Lowell, MA). The Epic instrument incorporates an evanescent waveguide sensor within each well of its proprietary 384-well microplates. Direct binding of inhibitors to BRD4 immobilized onto the microplate well surface can be detected by exposing the waveguide to a broadband light source. The resulting resonant wavelength shift (measured in picometers (pm)) is proportional to the mass bound to the surface. Epic biochemical plates (Corning, Lowell, MA) were activated by adding 15 µL/well of 200 mM EDC and 50 mM Sulfo-NHS (Pierce Thermo Scientific, Rockford, IL) and incubated for 60 minutes at room temperature. Plates were washed three times with MilliQ water and dried by centrifugation (1 minute at 400 rpm). BRD4 immobilization was accomplished by resuspending the protein at a concentration of 150 µg/mL in 20 mM HEPES (pH 7) and adding 10 µL/well. […] Compound/inhibitor binding was determined by calculating difference between the baseline (first read) and second read. The resulting binding response was fitted to a single site binding isotherm in order to determine an equilibrium dissociation constant (Kd).

[2] = target: BRD4 domain 2 (Homo sapiens, UniProt O60885); experiment: Kd determination of inhibitors binding to BRD4 domain 2 (Epic label-free platform); settings: direct binding to immobilized BRD4 domain 2; tripling dilution series from 20µM; about 1hr equilibrium; rounded to whole number
Protocol: as §1, §2

Structure (SMILES) | Kd [1] [µM] | Kd [2] [µM]
Cc1noc(C)c1-c1cc(S(=O)(=O)N[C@@H]2CCC[C@H]2C(=O)NC2CCCC2)c2cccnc2c1 [Compound 35, (1R,2R)-N-cyclopentyl-2-(7-(3,5-dimethylisoxazol-4-yl)quinoline-5-sulfonamido)cyclopen tanecarboxamide] | > 20 | 19.7
Cc1noc(C)c1-c1cc(S(=O)(=O)NC2CCCC2)c2cc(-c3ccccn3)c(=O)[nH]c2c1 [Compound 36, N-cyclopentyl-7-(3,5-dimethylisoxazol-4-yl)-2-oxo-3-(pyridin-2-yl)-1,2-dihydroquinoline-5-sulfonamide] | 1.45 | 0.718
Cc1noc(C)c1-c1cc(S(=O)(=O)NC2CCCC2)c2cc(-c3ncccn3)c(=O)[nH]c2c1 [Compound 37, N-cyclopentyl-7-(3,5-dimethylisoxazol-4-yl)-2-oxo-3-(pyrimidin-2-yl)-1,2-dihydroquinoline-5-sulfonamide] | 2.09 | 0.757
Cc1noc(C)c1-c1cc(S(=O)(=O)N[C@H]2C[C@@H]3CC[C@H]2C3)c2cccnc2c1 [Compound 38, N-((1S,2S,4R)-bicyclo[2.2.1]heptan-2-yl)-7-(3,5-dimethylisoxazol-4-yl)quinoline-5-sulfonamide] | 3.14 | 3.49
Cc1noc(C)c1-c1cc(S(=O)(=O)NC2CCC(C)(C)C2)c2cccnc2c1 (stereo not shown) [Compound 39, N-(3,3-dimethylcyclopentyl)-7-(3,5-dimethylisoxazol-4-yl)quinoline-5-sulfonamide] | 5.56 | 13.4
Cc1noc(C)c1-c1cc(S(=O)(=O)NC2CC3CCC(C2)N3C)c2cccnc2c1 (stereo not shown) [Compound 40, 7-(3,5-dimethylisoxazol-4-yl)-N-(8-methyl-8-azabicyclo[3.2.1]octan-3-yl)quinoline-5-sulfonamide] | 16 | > 20
Cc1noc(C)c1-c1cc(S(=O)(=O)NC2CCCC2)c2cc(N)c(=O)[nH]c2c1 [Compound 41, 3-amino-N-cyclopentyl-7-(3,5-dimethylisoxazol-4-yl)-2-oxo-1,2-dihydroquinoline-5-sulfonamide] | 0.4 | 0.45
Cc1noc(C)c1-c1cc(S(=O)(=O)N[C@@H]2CCC[C@H]2C(=O)NCc2nccn2C)c2cccnc2c1 [Compound 42, (1R,2R)-2-(7-(3,5-dimethylisoxazol-4-yl)quinoline-5-sulfonamido)-N-((1-methyl-1H-imidazol-2-yl)methyl)cyclopentan ecarboxamide] | 16.2 | 6.84
Cc1noc(C)c1-c1cc(S(=O)(=O)N[C@@H]2CCC[C@@H]2C(=O)NCc2nccn2C)c2cccnc2c1 [Compound 43, (1S,2R)-2-(7-(3,5-dimethylisoxazol-4-yl)quinoline-5-sulfonamido)-N-((1-methyl-1H-imidazol-2-yl)methyl)cyclopentan ecarboxamide] | > 20 | 10.7
Cc1noc(C)c1-c1cc(S(=O)(=O)NC2CCCC2)c2ccc(N3CCNCC3)nc2c1 [Compound 44, N-cyclopentyl-7-(3,5-dimethylisoxazol-4-yl)-2-(piperazin-1-yl)quinoline-5-sulfonamide] | 0.799 | 0.504
Cc1noc(C)c1-c1cc(S(=O)(=O)N[C@@H]2CCC[C@H]2NC(=O)OC(C)(C)C)c2cccnc2c1 [Compound 45, tert-butyl ((1R,2R)-2-(7-(3,5-dimethylisoxazol-4-yl)quinoline-5-sulfonamido)cyclopentyl)carbamate] | 14.6 | > 20
Cc1noc(C)c1-c1cc(S(=O)(=O)N[C@@H]2CCC[C@H]2C(=O)N2CCNCC2)c2cccnc2c1 [Compound 47, 7-(3,5-dimethylisoxazol-4-yl)-N-((1R,2R)-2-(piperazine-1-carbonyl)cyclopentyl) quinoline-5-sulfonamide] | 3.16 | 2.27
Cc1noc(C)c1-c1cc(S(=O)(=O)NCCc2ccccc2)c2ccc(=O)[nH]c2c1 [Compound 48, 7-(3,5-dimethylisoxazol-4-yl)-2-oxo-N-phenethyl-1,2-dihydroquinoline-5-sulfonamide] | > 20 | 20
Cc1noc(C)c1-c1cc(S(=O)(=O)NC2(C#N)CC2)c2cccnc2c1 [Compound 49, N-(1-cyanocyclopropyl)-7-(3,5-dimethylisoxazol-4-yl)quinoline-5-sulfonamide] | > 20 | 18.8
Cc1noc(C)c1-c1cc(S(=O)(=O)N[C@@H]2CCC[C@@H]2C(=O)N2CCNCC2)c2cccnc2c1 [Compound 50, 7-(3,5-dimethylisoxazol-4-yl)-N-((1R,2S)-2-(piperazine-1-carbonyl)cyclopentyl) quinoline-5-sulfonamide] | 7.17 | 8.13
CC(=O)N[C@H]1CCC[C@H]1NS(=O)(=O)c1cc(-c2c(C)noc2C)cc2ncccc12 [Compound 51, N-((1S,2R)-2-(7-(3,5-dimethylisoxazol-4-yl)quinoline-5-sulfonamido)cyclopentyl)acetamide] | 7.62 | 6.45
Cc1noc(C)c1-c1cc(S(=O)(=O)NC2(C#N)CCCC2)c2cccnc2c1 [Compound 52, N-(1-cyanocyclopentyl)-7-(3,5-dimethylisoxazol-4-yl)quinoline-5-sulfonamide] | > 20 | 11.7
CCN[C@H]1CCC[C@H]1NS(=O)(=O)c1cc(-c2c(C)noc2C)cc2ncccc12 [Compound 53, 7-(3,5-dimethylisoxazol-4-yl)-N-((1R,2S)-2-(ethylamino)cyclopentyl)quinoline-5-sulfonamide] | > 20 | 8.64
CCOC(=O)N[C@H]1CCC[C@H]1NS(=O)(=O)c1cc(-c2c(C)noc2C)cc2ncccc12 [Compound 54, ethyl ((1S,2R)-2-(7-(3,5-ditnethylisoxazol-4-yl)quinoline-5-sulfonamido)cyclopentyl)carbamate] | 5.87 | 7.99
Cc1noc(C)c1-c1cc(S(=O)(=O)NC2CCCC2)c2cc(N3CCOCC3)c(=O)[nH]c2c1 [Compound 55, N-cyclopentyl-7-(3,5-dimethylisoxazol-4-yl)-3-morpholino-2-oxo-1,2-dihydroquinoline-5-sulfonamide] | 1.34 | 0.726
Cc1noc(C)c1-c1cc(S(=O)(=O)NC2CCCC2)c2cc(N3CCNCC3)c(=O)[nH]c2c1 [Compound 56, N-cyclopentyl-7-(3,5-dimethylisoxazol-4-yl)-2-oxo-3-(piperazin-1-yl)-1,2-dihydroquinoline-5-sulfonamide] | 0.933 | 0.611
Cc1noc(C)c1-c1cc(S(=O)(=O)NC2CCCC2)c2cc(NCCO)c(=O)[nH]c2c1 [Compound 57, N-cyclopentyl-7-(3,5-dimethylisoxazol-4-yl)-3-((2-hydroxyethyl)amino)-2-oxo-1,2-dihydroquinoline-5-sulfonamide] | 0.444 | 0.477
COCCNc1cc2c(S(=O)(=O)NC3CCCC3)cc(-c3c(C)noc3C)cc2[nH]c1=O [Compound 58, N-cyclopentyl-7-(3,5-dimethylisoxazol-4-yl)-3-((2-methoxyethyl)amino)-2-oxo-1,2-dihydroquinoline-5-sulfonamide] | 0.313 | 0.32
Cc1noc(C)c1-c1cc(S(=O)(=O)NC2CCCC2)c2cc(N3CCCCC3)c(=O)[nH]c2c1 [Compound 60, N-cyclopentyl-7-(3,5-dimethylisoxazol-4-yl)-2-oxo-3-(piperidin-1-yl)-1,2-dihydroquinoline-5-sulfonamide] | 2.23 | 1.9
Cc1noc(C)c1-c1cc(S(=O)(=O)NC2CCCC2)c2cc(N(C)C)c(=O)[nH]c2c1 [Compound 61, N-cyclopentyl-3-(dimethylamino)-7-(3,5-dimethylisoxazol-4-yl)-2-oxo-1,2-dihydroquinoline-5-sulfonamide] | 1.02 | 0.645
CNc1cc2c(S(=O)(=O)NC3CCCC3)cc(-c3c(C)noc3C)cc2[nH]c1=O [Compound 62, N-cyclopentyl-7-(3,5-dimethylisoxazol-4-yl)-3-(methytamino)-2-oxo-1,2-dihydroquinoline-5-sulfonamide] | 0.85 | 0.526
COC[C@H]1CCC[C@H]1NS(=O)(=O)c1cc(-c2c(C)noc2C)cc2ncccc12 [Compound 63, 7-(3,5-dimethylisoxazol-4-yl)-N-((1R,2S)-2-(methoxymethyl)cyclopentyl)quinoline-5-sulfonamide] | 14.6 | 9.56
Cc1noc(C)c1-c1cc(S(=O)(=O)NC2CCCC2)c2cc(N3CCOC3=O)c(=O)[nH]c2c1 [Compound 64, N-cyclopentyl-7-(3,5-dimethylisoxazol-4-yl)-2-oxo-3-(2-oxooxazolidin-3-yl)-1,2-dihydroquinoline-5-sulfonamide] | 4.85 | 3.21
Cc1noc(C)c1-c1cc(S(=O)(=O)NC2CCCC2)c2cc(N3CCN(C)CC3)c(=O)[nH]c2c1 [Compound 65, N-cyclopentyl-7-(3,5-dimethylisoxazol-4-yl)-3-(4-methylpiperazin-1-yl)-2-oxo-1,2-dihydroquinoline-5-sulfonamide] | 0.981 | 0.546
